Measurements taken from paper PMC4658182, “The Synthetic Antimicrobial Peptide 19-2.5 Interacts with Heparanase and Heparan Sulfate in Murine and Human Sepsis” (PLoS ONE, 2015).
Read-outs that look alike come from different tables or passages of the source.

Experiment: Isothermal titration calorimetry, binding to HS-fragments
Conditions: ITC; for Ka binding constant / Kd / N stoichiometry of binding / ΔG Gibbs free energy / ΔS entropy change: 2 mM peptide titrated 20 times 1.5 μl into 100 μg/ml HS
Experimental: Isothermal titration calorimetry (ITC) experiments were performed as previously described. Briefly, the binding of peptide 19–2.5 to heparanase or HS-fragments was recorded by measuring the enthalpy change of the reaction at 37°C. For this, a total of 100 μg/ml heparanase (R&D Systems Europe Ltd., Abingdon, United Kingdom) and 200 μg/ml HS-fragments (H7640 Sigma-Aldrich, St. Louis, MO, USA) were dispersed into the calorimetric cell, and 2 mM peptide 19–2.5 was titrated to this dispersion stepwise in 3 μl portions. After exploring experiments, the concentration of HS was 100 μg/ml titrated with 1.5 μl of peptide 19–2.5 (2 mM) 20 times at 37°C.
Fig 5 Isothermal titration calorimetry (ITC). For the ITC experiments, 2 mM peptide 19–2.5 was titrated to this dispersion stepwise in 3 μl portions into (A) 200 μg/ml heparan sulfate-fragments (HS) and (B) 100 μg/ml heparanase (Hep). In each titration, the resulting heat signals P were recorded (peak downwards are exothermic, peaks upwards endothermic reactions) against time (min) and presented in the top parts of Fig 5A and 5B. The integrated enthalpy changes ΔH versus [peptide]:[HS-fragments] (A) and [peptide]:[heparanase] (B) concentration ratios of the single titrations are illustrated in the bottom parts of Fig 5A and 5B.

[1] = 37°C, 2 mM peptide in 3 μl portions into 200 μg/ml HS-fragments, Fig 5A

For “peptide 19–2.5: synthetic antimicrobial peptide 19–2.5 belongs to the class of synthetic anti-lipopolysaccharide peptides (SALP = synthetic anti-LPS peptides)”, the “[Peptide 19–2.5]:[HS] weight ratio at saturation” value [1] was roughly 0.6, the “heat of reaction on titration to HS-fragments” value [1] was “high exothermic reaction” and the Ka binding constant (37°C, experiment 1) was 1.93e+06 M⁻¹. The Kd (37°C, experiment 1) was 518 nM, the “N stoichiometry of binding” value (37°C, experiment 1) was 0.511 w/w ratio and the “ΔG Gibbs free energy” value (37°C, experiment 1) was -8.918 kcal/mol. It also gave a ΔS entropy change (37°C, experiment 1) of 4.46 cal/mol/K, a Ka binding constant (37°C, experiment 2) of 1.52e+07 M⁻¹ and a Kd (37°C, experiment 2) of 65.7 nM. For the same substance, the “N stoichiometry of binding” value (37°C, experiment 2) was 0.475 w/w ratio, the “ΔG Gibbs free energy” value (37°C, experiment 2) was -10.192 kcal/mol and the ΔS entropy change (37°C, experiment 2) was 6.42 cal/mol/K. For the same substance, the Ka binding constant (37°C, experiment 3) was 1.55e+07 M⁻¹, the Kd (37°C, experiment 3) was 64.5 nM and the “N stoichiometry of binding” value (37°C, experiment 3) was 0.547 w/w ratio. The “ΔG Gibbs free energy” value (37°C, experiment 3) was -10.201 kcal/mol, the ΔS entropy change (37°C, experiment 3) was 10.8 cal/mol/K and the Ka binding constant (37°C, experiment 4) was 1.2e+07 M⁻¹. For the same substance, the Kd (37°C, experiment 4) was 83.3 nM, the “N stoichiometry of binding” value (37°C, experiment 4) was 0.534 w/w ratio and the “ΔG Gibbs free energy” value (37°C, experiment 4) was -10.046 kcal/mol. For the same substance, the ΔS entropy change (37°C, experiment 4) was 6.77 cal/mol/K, the Ka binding constant (37°C, mean of n = 4) was 1.12e+07 M⁻¹ and the “N stoichiometry of binding” value (37°C, mean of n = 4) was 0.520 w/w ratio. For the same substance, the “ΔG Gibbs free energy” value (37°C, mean of n = 4) was -9.839 kcal/mol, the ΔS entropy change (37°C, mean of n = 4) was 7.11 cal/mol/K and the Kd (37°C, mean of n = 4, read-out: Kd) was 89.2 nM. The “titration curve shape with HS-fragments” value (Fig 5A) was “S-shaped curve with saturation characteristic for a complex formation”.
